pIC50: −log10 of the molar value.
Legend:
MERS-CoV 3CLpro = MERS-CoV 3CLpro (Middle East respiratory syndrome-related coronavirus, UniProt K9N7C7); assay: biochemical
SARS-CoV-2 3CLpro = SARS-CoV-2 3CLpro (Severe acute respiratory syndrome coronavirus 2, UniProt P0DTD1); assay: biochemical
HCoV-229E 3CLpro = HCoV-229E 3CLpro (Human coronavirus 229E, UniProt P0C6X1); assay: HCoV-229E 3CLpro inhibition assay (FRET); assay type: biochemical
SARS-CoV 3CLpro = SARS-CoV 3CLpro (Severe acute respiratory syndrome coronavirus, UniProt P0C6X7); assay: biochemical

Chain of MERS-CoV 3CLpro (K9N7C7 3248-3553): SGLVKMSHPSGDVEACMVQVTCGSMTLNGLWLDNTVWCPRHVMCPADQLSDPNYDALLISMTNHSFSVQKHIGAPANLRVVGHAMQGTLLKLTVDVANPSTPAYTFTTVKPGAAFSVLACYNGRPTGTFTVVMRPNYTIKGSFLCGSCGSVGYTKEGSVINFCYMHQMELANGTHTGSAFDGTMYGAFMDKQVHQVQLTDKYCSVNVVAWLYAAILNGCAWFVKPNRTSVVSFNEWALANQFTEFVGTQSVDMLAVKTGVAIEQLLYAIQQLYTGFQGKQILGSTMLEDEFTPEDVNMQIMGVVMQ
Chain of HCoV-229E 3CLpro (P0C6X1 2966-3267): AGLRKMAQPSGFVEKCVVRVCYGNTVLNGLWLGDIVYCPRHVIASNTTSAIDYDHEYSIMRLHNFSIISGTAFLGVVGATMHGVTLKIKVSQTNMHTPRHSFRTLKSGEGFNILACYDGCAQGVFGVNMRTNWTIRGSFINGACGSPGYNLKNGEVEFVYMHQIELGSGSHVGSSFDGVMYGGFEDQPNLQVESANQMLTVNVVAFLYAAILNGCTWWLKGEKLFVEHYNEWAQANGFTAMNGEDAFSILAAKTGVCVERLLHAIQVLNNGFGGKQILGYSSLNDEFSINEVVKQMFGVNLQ

Compound | pIC50 (MERS-CoV 3CLpro) | pIC50 (SARS-CoV-2 3CLpro) | pIC50 (HCoV-229E 3CLpro) | pIC50 (SARS-CoV 3CLpro)
CC[C@H](C)[C@H](NC(=O)C(F)(F)C(F)(F)F)C(=O)N1C[C@H]2[C@@H]([C@H]1C(=O)NN(C[C@@H]1CCNC1=O)C(=O)[C@H](F)Cl)C2(C)C [Example 62, N-[(1S,2S)-1-[(1R,2S,5S)-2-[[[(2R)-2-chloro-2-fluoro-acetyl]-[[(3S)-2-oxopyrrolidin-3-yl]methyl]amino]carbamoyl]-6,6-dimethyl-3-azabicyclo[3.1.0]hexane-3-carbonyl]-2-methyl-butyl]-2,2,3,3,3-pentafluoro-propanamide] | 7.37 | 8.10 | 7.77 | 8.00
CC(F)(F)C(=O)N[C@H](C(=O)N1C[C@@H]2CCC[C@@H]2[C@H]1C(=O)NN(C[C@@H]1CCNC1=O)C(=O)[C@H](F)Cl)C(C)(C)C [Example 30, N-[(1S)-1-[(3S,3aS,6aR)-3-[[[(2R)-2-chloro-2-fluoro-acetyl]-[[(3S)-2-oxopyrrolidin-3-yl]methyl]amino]carbamoyl]-3,3a,4,5,6,6a-hexahydro-1H-cyclopenta[c]pyrrole-2-carbonyl]-2,2-dimethyl-propyl]-2,2-difluoro-propanamide] | 6.84 | 8.10 | 7.31 | 7.82
CC1(C)[C@@H]2[C@@H](C(=O)NN(C[C@@H]3CCNC3=O)C(=O)[C@H](F)Cl)N(C(=O)[C@H](Cc3ccccc3)NC(=O)C(F)(F)F)C[C@@H]21 [Example 20, N-[(1S)-1-benzyl-2-[(1R,2S,5S)-2-[[[(2R)-2-chloro-2-fluoro-acetyl]-[[(3S)-2-oxopyrrolidin-3-yl]methyl]amino]carbamoyl]-6,6-dimethyl-3-azabicyclo[3.1.0]hexan-3-yl]-2-oxo-ethyl]-2,2,2-trifluoro-acetamide] | 6.97 | 7.85 | 7.33 | 7.80
CC1([C@H](NC(=O)C(F)(F)F)C(=O)N2CC3(CC3)C[C@H]2C(=O)NN(C[C@@H]2CCNC2=O)C(=O)[C@H](F)Cl)CC1 [Example 24, N-[(1S)-2-[(6S)-6-[[[(2R)-2-chloro-2-fluoro-acetyl]-[[(3S)-2-oxopyrrolidin-3-yl]methyl]amino]carbamoyl]-5-azaspiro[2.4]heptan-5-yl]-1-(1-methylcyclopropyl)-2-oxo-ethyl]-2,2,2-trifluoro-acetamide] | 6.94 | 7.74 | 7.51 | 7.89
C[C@@H]1C[C@@H](C(=O)NN(C[C@@H]2CCNC2=O)C(=O)[C@H](F)Cl)N(C(=O)[C@@H](NC(=O)C(F)(F)F)C(C)(C)C)C1 [Example 7, N-[(1S)-1-[(2S,4R)-2-[[[(2R)-2-chloro-2-fluoro-acetyl]-[[(3S)-2-oxopyrrolidin-3-yl]methyl]amino]carbamoyl]-4-methyl-pyrrolidine-1-carbonyl]-2,2-dimethyl-propyl]-2,2,2-trifluoro-acetamide] | 6.42 | 8.10 | 6.71 | 7.77
CC[C@H](C)[C@H](NC(=O)C(F)F)C(=O)N1C[C@H]2[C@@H]([C@H]1C(=O)NN(C[C@@H]1CCNC1=O)C(=O)[C@@H](F)Cl)C2(C)C [Example 109, N-[(1S,2S)-1-[(1R,2S,5S)-2-[[[(2S)-2-chloro-2-fluoro-acetyl]-[[(3S)-2-oxopyrrolidin-3-yl]methyl]amino]carbamoyl]-6,6-dimethyl-3-azabicyclo[3.1.0]hexane-3-carbonyl]-2-methyl-butyl]-2,2-difluoro-acetamide] | 7.07 | 7.85 | 7.54 | 7.70
O=C1NCC[C@H]1CN(NC(=O)[C@@H]1[C@H]2CCC[C@H]2CN1C(=O)[C@@H](NC(=O)C(F)(F)F)C1CCC1)C(=O)[C@H](F)Cl [Example 74, N-[(1S)-2-[(3S,3aS,6aR)-3-[[[(2R)-2-chloro-2-fluoro-acetyl]-[[(3S)-2-oxopyrrolidin-3-yl]methyl]amino]carbamoyl]-3,3a,4,5,6,6a-hexahydro-1H-cyclopenta[c]pyrrol-2-yl]-1-cyclobutyl-2-oxo-ethyl]-2,2,2-trifluoro-acetamide] | 6.45 | 8.15 | 6.93 | 7.35
CC[C@H](C)[C@H](NC(=O)[C@H](F)Cl)C(=O)N1C[C@H]2[C@@H]([C@H]1C(=O)NN(C[C@H]1CCCNC1=O)C(=O)[C@H](F)Cl)C2(C)C [Example 194, (2R)-2-chloro-N-[(1S,2S)-1-[(1R,2S,5S)-2-[[[(2R)-2-chloro-2-fluoro-acetyl]-[[(3R)-2-oxo-3-piperidyl]methyl]amino]carbamoyl]-6,6-dimethyl-3-azabicyclo[3.1.0]hexane-3-carbonyl]-2-methyl-butyl]-2-fluoro-acetamide] | 6.95 | 7.82 | 7.54 | 7.60
CC[C@@H](C)[C@H](NC(=O)C1CC(F)(F)C1)C(=O)N1C[C@@H]2CCC[C@@H]2[C@H]1C(=O)NN(C[C@@H]1CCNC1=O)C(=O)[C@H](F)Cl [Example 128, N-[(1S,2R)-1-[(3S,3aS,6aR)-3-[[[(2R)-2-chloro-2-fluoro-acetyl]-[[(3S)-2-oxopyrrolidin-3-yl]methyl]amino]carbamoyl]-3,3a,4,5,6,6a-hexahydro-1H-cyclopenta[c]pyrrole-2-carbonyl]-2-methyl-butyl]-3,3-difluoro-cyclobutanecarboxamide] | 7.01 | 7.96 | 7.44 | 7.74
CCC(CC)[C@H](NC(=O)C(F)F)C(=O)N1CC(C)(C)C[C@H]1C(=O)NN(C[C@@H]1CCNC1=O)C(=O)[C@H](F)Cl [Example 139, N-[(1S)-1-[(2S)-2-[[[(2R)-2-chloro-2-fluoro-acetyl]-[[(3S)-2-oxopyrrolidin-3-yl]methyl]amino]carbamoyl]-4,4-dimethyl-pyrrolidine-1-carbonyl]-2-ethyl-butyl]-2,2-difluoro-acetamide] | 6.86 | 7.85 | 7.46 | 7.74
CC[C@H](C)[C@H](NC(=O)C1(F)CC1)C(=O)N1C[C@@H]2CCC[C@@H]2[C@H]1C(=O)NN(C[C@@H]1CCCNC1=O)C(=O)[C@H](F)Cl [Example 170a, N-[(1S,2S)-1-[(3S,3aS,6aR)-3-[[[(2R)-2-chloro-2-fluoro-acetyl]-[[(3S)-2-oxo-3-piperidyl]methyl]amino]carbamoyl]-3,3a,4,5,6,6a-hexahydro-1H-cyclopenta[c]pyrrole-2-carbonyl]-2-methyl-butyl]-1-fluoro-cyclopropanecarboxamide] | 6.56 | 7.80 | 6.97 | 7.60
CCC(CC)[C@H](NC(=O)C(F)F)C(=O)N1C[C@H]2[C@@H]([C@H]1C(=O)NN(C[C@@H]1CCCNC1=O)C(=O)[C@H](F)Cl)C2(C)C [Example 173, N-[(1S)-1-[(1R,2S,5S)-2-[[[(2R)-2-chloro-2-fluoro-acetyl]-[[(3S)-2-oxo-3-piperidyl]methyl]amino]carbamoyl]-6,6-dimethyl-3-azabicyclo[3.1.0]hexane-3-carbonyl]-2-ethyl-butyl]-2,2-difluoro-acetamide] | 6.76 | 7.89 | 7.57 | 7.74
CCC(CC)[C@H](NC(=O)C(F)(F)F)C(=O)N1C[C@@H]2CCC[C@@H]2[C@H]1C(=O)NN(C[C@@H]1CCNC1=O)C(=O)[C@H](F)Cl [Example 77, N-[(1S)-1-[(3S,3aS,6aR)-3-[[[(2R)-2-chloro-2-fluoro-acetyl]-[[(3S)-2-oxopyrrolidin-3-yl]methyl]amino]carbamoyl]-3,3a,4,5,6,6a-hexahydro-1H-cyclopenta[c]pyrrole-2-carbonyl]-2-ethyl-butyl]-2,2,2-trifluoro-acetamide] | 7.16 | 8.15 | 7.55 | 7.92
CC[C@@H](C)[C@H](NC(=O)C1(F)CCC1)C(=O)N1C[C@H]2[C@@H]([C@H]1C(=O)NN(C[C@@H]1CCNC1=O)C(=O)[C@H](F)Cl)C2(C)C [Example 119, N-[(1S,2R)-1-[(1R,2S,5S)-2-[[[(2R)-2-chloro-2-fluoro-acetyl]-[[(3S)-2-oxopyrrolidin-3-yl]methyl]amino]carbamoyl]-6,6-dimethyl-3-azabicyclo[3.1.0]hexane-3-carbonyl]-2-methyl-butyl]-1-fluoro-cyclobutanecarboxamide] | 6.69 | 7.82 | 7.25 | 7.70
CC(C)(C)[C@H](NC(=O)C1(F)CC1)C(=O)N1C[C@@H]2CCC[C@@H]2[C@H]1C(=O)NN(C[C@@H]1CCNC1=O)C(=O)[C@@H](F)Cl [Example 103, N-[(1S)-1-[(3S,3aS,6aR)-3-[[[(2S)-2-chloro-2-fluoro-acetyl]-[[(3S)-2-oxopyrrolidin-3-yl]methyl]amino]carbamoyl]-3,3a,4,5,6,6a-hexahydro-1H-cyclopenta[c]pyrrole-2-carbonyl]-2,2-dimethyl-propyl]-1-fluoro-cyclopropanecarboxamide] | 6.43 | 7.89 | 6.78 | 7.60
CC(C)(C)[C@H](Nc1cc(F)ncn1)C(=O)N1C[C@@H]2CCC[C@@H]2[C@H]1C(=O)NN(C[C@@H]1CCNC1=O)C(=O)[C@H](F)Cl [Example 182] | 7.05 | 7.96 | 7.43 | 7.92
CC[C@@H](C)[C@H](NC(=O)C(F)F)C(=O)N1C[C@H]2[C@@H]([C@H]1C(=O)NN(C[C@@H]1CCNC1=O)C(=O)[C@H](F)Cl)C2(C)C [Example 112, N-[(1S,2R)-1-[(1R,2S,5S)-2-[[[(2R)-2-chloro-2-fluoro-acetyl]-[[(3S)-2-oxopyrrolidin-3-yl]methyl]amino]carbamoyl]-6,6-dimethyl-3-azabicyclo[3.1.0]hexane-3-carbonyl]-2-methyl-butyl]-2,2-difluoro-acetamide] | 7.15 | 8.10 | 7.66 | 7.85
